Source: BindingDB's records for doi:10.1021/jm00046a026 (Virginia Commonwealth University, 1994)

How the values were obtained:
[1] = Inhibition against delta receptor from displacement studies using 1.5 nM [3H]DPDPE in rhesus monkey cortex membrane
[2] = Inhibition against kappa receptor from displacement studies using 1.5 nM [3H]U-69593 in rhesus monkey cortex membrane
[3] = Inhibition against mu receptor from displacement studies using 0.5 nM [3H]-DAMGO in rhesus monkey cortex membrane
[4] = Inhibition against sigma receptor using displacement of 3 nM [3H]pentazocine in homogenate of guinea pig brain cerebellum

| SMILES | Ki [1] | Ki [2] | Ki [3] | Ki [4] |
| --- | --- | --- | --- | --- |
| CCCCN1CC[C@]2(C)c3cc(O)ccc3CC1[C@@H]2C [(6S,11R)-3-Butyl-6,11-dimethyl-1,2,3,4,5,6-hexahydro-2,6-methano-benzo[d]azocin-8-ol] | 78 nM | 4.9 nM | 3.4 nM | 104 nM |
| CCCCCCCCCN1CC[C@]2(C)c3cc(O)ccc3CC1[C@H]2C [(6S,11S)-6,11-Dimethyl-3-nonyl-1,2,3,4,5,6-hexahydro-2,6-methano-benzo[d]azocin-8-ol] | 2930 nM | 2260 nM | 126 nM | 12 nM |
| CCCCCCN1CC[C@]2(C)c3cc(O)ccc3CC1[C@@H]2C [(6S,11R)-3-Hexyl-6,11-dimethyl-1,2,3,4,5,6-hexahydro-2,6-methano-benzo[d]azocin-8-ol] | 67 nM | 43 nM | 39 nM | 40 nM |
| CCCCCN1CC[C@@]2(C)c3cc(O)ccc3CC1[C@H]2C [(6R,11S)-6,11-Dimethyl-3-pentyl-1,2,3,4,5,6-hexahydro-2,6-methano-benzo[d]azocin-8-ol] | 7000 nM | 738 nM | 776 nM | – |
| C[C@H]1C2Cc3ccc(O)cc3[C@@]1(C)CCN2C [(6S,11R)-3,6,11-Trimethyl-1,2,3,4,5,6-hexahydro-2,6-methano-benzo[d]azocin-8-ol] | 152 nM | 17 nM | 4.2 nM | 18100 nM |
| CCCCCCCN1CC[C@]2(C)c3cc(O)ccc3CC1[C@H]2C [(6S,11S)-3-Heptyl-6,11-dimethyl-1,2,3,4,5,6-hexahydro-2,6-methano-benzo[d]azocin-8-ol] | 7000 nM | 723 nM | 259 nM | 1.9 nM |
| CCCCCCCCN1CC[C@]2(C)c3cc(O)ccc3CC1[C@@H]2C [(6S,11R)-6,11-Dimethyl-3-octyl-1,2,3,4,5,6-hexahydro-2,6-methano-benzo[d]azocin-8-ol] | 114 nM | 77 nM | 59 nM | 35 nM |
| CCCCN1CC[C@@]2(C)c3cc(O)ccc3CC1[C@H]2C [(6R,11S)-3-Butyl-6,11-dimethyl-1,2,3,4,5,6-hexahydro-2,6-methano-benzo[d]azocin-8-ol] | 7000 nM | 783 nM | 1240 nM | 6 nM |
| CCCCCN1CC[C@]2(C)c3cc(O)ccc3CC1[C@@H]2C [(6S,11R)-6,11-Dimethyl-3-pentyl-1,2,3,4,5,6-hexahydro-2,6-methano-benzo[d]azocin-8-ol] | 98 nM | 23 nM | 15 nM | – |
| CCN1CC[C@@]2(C)c3cc(O)ccc3CC1[C@H]2C [(6R,11S)-3-Ethyl-6,11-dimethyl-1,2,3,4,5,6-hexahydro-2,6-methano-benzo[d]azocin-8-ol] | 7000 nM | 3780 nM | – | 1090 nM |
| CCN1CC[C@]2(C)c3cc(O)ccc3CC1[C@@H]2C [(6S,11R)-3-Ethyl-6,11-dimethyl-1,2,3,4,5,6-hexahydro-2,6-methano-benzo[d]azocin-8-ol] | 158 nM | 16 nM | 16 nM | 16600 nM |
| C[C@@H]1C2Cc3ccc(O)cc3[C@]1(C)CCN2 [(6R,11S)-6,11-Dimethyl-1,2,3,4,5,6-hexahydro-2,6-methano-benzo[d]azocin-8-ol] | 7000 nM | 3780 nM | 1720 nM | 2730 nM |
| CCCCCCCN1CC[C@]2(C)c3cc(O)ccc3CC1[C@@H]2C [(6S,11R)-3-Heptyl-6,11-dimethyl-1,2,3,4,5,6-hexahydro-2,6-methano-benzo[d]azocin-8-ol] | 57 nM | 32 nM | 27 nM | 49 nM |
| CCCCCCCCCCN1CC[C@]2(C)c3cc(O)ccc3CC1[C@@H]2C [(6S,11R)-3-Decyl-6,11-dimethyl-1,2,3,4,5,6-hexahydro-2,6-methano-benzo[d]azocin-8-ol] | 2580 nM | 2260 nM | 997 nM | 38 nM |
| C[C@@H]1C2Cc3ccc(O)cc3[C@]1(C)CCN2C [(6R,11S)-3,6,11-Trimethyl-1,2,3,4,5,6-hexahydro-2,6-methano-benzo[d]azocin-8-ol] | 7000 nM | 3780 nM | 1380 nM | 1330 nM |
| CCCCCCN1CC[C@@]2(C)c3cc(O)ccc3CC1[C@H]2C [(6R,11S)-3-Hexyl-6,11-dimethyl-1,2,3,4,5,6-hexahydro-2,6-methano-benzo[d]azocin-8-ol] | – | 2260 nM | 318 nM | 2.3 nM |
| CCCCCCCCN1CC[C@]2(C)c3cc(O)ccc3CC1[C@H]2C [(6S,11S)-6,11-Dimethyl-3-octyl-1,2,3,4,5,6-hexahydro-2,6-methano-benzo[d]azocin-8-ol] | 1590 nM | 2260 nM | 160 nM | 2.8 nM |
| CCCCCCCCCN1CC[C@]2(C)c3cc(O)ccc3CC1[C@@H]2C [(6S,11R)-6,11-Dimethyl-3-nonyl-1,2,3,4,5,6-hexahydro-2,6-methano-benzo[d]azocin-8-ol] | 464 nM | 709 nM | 183 nM | 32 nM |
| CCCCCCCCCCN1CC[C@]2(C)c3cc(O)ccc3CC1[C@H]2C [(6S,11S)-3-Decyl-6,11-dimethyl-1,2,3,4,5,6-hexahydro-2,6-methano-benzo[d]azocin-8-ol] | – | 2260 nM | 756 nM | 69 nM |
| CCCN1CC[C@@]2(C)c3cc(O)ccc3CC1[C@H]2C [(6R,11S)-6,11-Dimethyl-3-propyl-1,2,3,4,5,6-hexahydro-2,6-methano-benzo[d]azocin-8-ol] | 7000 nM | 452 nM | 943 nM | 43 nM |
| CCCN1CC[C@]2(C)c3cc(O)ccc3CC1[C@@H]2C [(6S,11R)-6,11-Dimethyl-3-propyl-1,2,3,4,5,6-hexahydro-2,6-methano-benzo[d]azocin-8-ol] | 37 nM | 2 nM | 1.5 nM | 739 nM |
| C[C@H]1C2Cc3ccc(O)cc3[C@@]1(C)CCN2 [(6S,11R)-6,11-Dimethyl-1,2,3,4,5,6-hexahydro-2,6-methano-benzo[d]azocin-8-ol] | 449 nM | 113 nM | – | 6750 nM |
